{"source": "paper PMC5826917", "about": "“A small molecule inhibitor of Nicotinamide N-methyltransferase for the treatment of metabolic disorders” (Scientific Reports, 2018)", "key": {"mice on a high-fat diet": {"test_system": "mice on a high-fat diet", "parameters": "method as in PMID 29155147", "conditions": "treatment period of 12 days; cited from earlier work"}, "db/db mice [1]": {"test_system": "db/db mice", "assay": "Chronic efficacy study in db/db mice", "conditions": "db/db mice", "procedure": "Samples for MNA were analyzed employing a fit-for-purpose LC-MS/MS method. PE-Sciex API-4000 triple quadrupole (PerkinElmerSciex Instruments, Boston, MA) mass spectrometer was employed for this analysis. Samples (5 µL) were injected onto Kinetex HILIC (50 × 4.6 mm, 2.6 µm; Phenomenex, Torrance, CA, USA) column connected to Shimadzu VP (Shimadzu, Japan) LC system. The gradient mobile phase mixture of 0.2% formic acid and acetonitrile was delivered at a flow rate of 0.45 ml min-1 into the mass spectrometer electrospray ionization (ESI) chamber. Quantitation was achieved by MS/MS detection in positive ion mode for MNA and internal standard (d4–MNA). Detection of the ions was performed in the multiple reaction monitoring (MRM) mode, monitoring the transition of the m/z 137 precursor ion to the m/z 92 product ion for MNA and m/z 141 precursor ion to the m/z 84 product ion for d4-MNA (internal standard).\nA simple protein precipitation extraction method was followed for extraction of N-methylnicotinamide from plasma and various tissue homogenate samples. The tissue samples were homogenized with 1:3 proportions of phosphate buffer saline (PBS) and this homogenate was used for N-Methylnicotinamide determinations. To an aliquot of ~50 μL of plasma/ liver homogenate/ adipose tissue homogenate samples ~300 µl of acetonitrile containing IS (d4-MNA) solution was added, followed by vortex for ~3 minutes and centrifuged for 10 minutes at 14,000 rpm. The supernatant was separated and transferred to pre-labeled HPLC vials and analyzed by LC-MS/MS system.\nSamples for methylated JBSNF-000088 were analyzed employing a fit-for-purpose LC-MS/MS method. PE-Sciex API-5500 triple quadrupole (PerkinElmerSciex Instruments, Boston, MA) mass spectrometer was employed for this analysis. Samples (2 µL) were injected onto Atlantis dC18 (50 × 4.6 mm, 3 µm; Waters, Milford, MA, USA) column connected to Shimadzu VP (Shimadzu, Japan) LC system. The gradient mobile phase mixture of 0.2% formic acid and acetonitrile was delivered at a flow rate of 0.9 mL min-1 into the mass spectrometer electrospray ionization (ESI) chamber. Quantitation was achieved by MS/MS detection in positive ion mode for methylated JBSNF-000088 and internal standard (Tolbutamide). Detection of the ions was performed in the multiple reaction monitoring (MRM) mode, monitoring the transition of the m/z 168 precursor ion to the m/z 128.8, product ion for MNA and m/z 271 precursor ion to the m/z 91 product ion for tolbutamide (internal standard).\nMale C57BL6/N (Vivo Bio Tech Ltd, India), ob/ob (B6.V-Lepob/OlaHsd) and its lean control (Envigo laboratories Inc, USA) and db/db (BKS.Cg- + Leprdb/ + Leprdb/OlaHsd) and its lean control (Envigo laboratories Inc, USA) were housed in individually ventilated cages (n = 5/cage) under standard laboratory conditions. The study room environment was maintained at a temperature of 21–24 °C and, relative humidity at 40–70%. The animal rooms were maintained under 12 h light and dark cycle. Animals were provided with ad libitum access to water and food (except where noted otherwise, e.g. during fasting prior for glucose tolerance tests, fasting prior to terminal sacrifice). Animals were acclimatized for 1 week before initiation of studies. For Diet induced obesity (DIO) mice study, C57BL6/N mice were maintained on rodents chow diet (Teklad; Harlan) or HFD (60% Kcal; Research diet) for 14 weeks before study initiation and throughout the study period. ob/ob and db/db mice and their lean controls were maintained on rodents chow diet (Teklad; Harlan). All the experiments were approved by Institutional Animal Ethics Committee (IAEC) of Jubilant Biosys Ltd, India.\nLean control + Vehicle and HFD + Vehicle Control groups (G1 and G2) mice were administered with vehicle."}, "NNMT": {"target": "T1, NNMT (Homo sapiens, UniProt P40261)", "T1 sequence (P40261 1-264)": "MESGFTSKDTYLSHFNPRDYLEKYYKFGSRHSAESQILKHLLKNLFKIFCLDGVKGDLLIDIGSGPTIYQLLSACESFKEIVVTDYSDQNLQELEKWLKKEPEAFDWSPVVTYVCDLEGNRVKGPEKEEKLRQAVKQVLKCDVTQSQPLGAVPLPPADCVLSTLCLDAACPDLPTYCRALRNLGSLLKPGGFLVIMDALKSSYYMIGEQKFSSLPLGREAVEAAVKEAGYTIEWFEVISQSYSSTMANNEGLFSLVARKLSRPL", "assay": "NNMT inhibition by the N-methylated product", "type": "biochemical"}, "db/db mice [2]": {"test_system": "db/db mice", "parameters": "method as in PMID 12217892, PMID 25256010", "conditions": "two weeks of treatment at 100 µg/kg bid; cited from earlier work"}}, "data": [{"compound": "C[n+]1cccc2c(N)cccc21", "note": "[5-Amino-1-methylquinoline]", "values": [{"measurement": "body weight", "setting": "mice on a high-fat diet", "value": "causes weight loss at preserved food intake"}]}, {"compound": "COc1ccc(C(N)=O)c[n+]1C", "note": "[N-methylated product of JBSNF-000088, -carbamoyl-2-methoxy-1-methylpyridin-1-ium trifluoromethanesulfonate]", "values": [{"measurement": "detection of methylated compound after oral administration of JBSNF-000088", "setting": "db/db mice [1]", "value": "could be detected in plasma and adipose tissue"}, {"measurement": "IC50", "setting": "NNMT", "value": "> 30", "unit": "µM"}, {"measurement": "inhibition at 30 µM", "setting": "NNMT; at 30 µM", "value": 20, "unit": "%"}]}, {"compound": "liraglutide", "values": [{"measurement": "effect on body weight", "setting": "db/db mice [2]", "value": "no effect on body weight"}, {"measurement": "influence on glucose homeostasis", "setting": "db/db mice [2]", "value": "moderate influence on glucose homeostasis"}]}]}
